Measured values as given in patent US20170165253A1, “TREATMENT OF SEXUAL DYSFUNCTION AND FOR IMPROVED SEXUAL QUALITY OF LIFE” (ReJoy, priority 2015, published 2017).
Several values for one entry are separate records, joined by “and”; a condition that tells them apart may be missing. Equal values may be shown once. Where a name gives a salt, the structure may show the parent alone.

What was measured:
[1] = test system: nipple areole complex; experiment: Pilot study in female sexual dysfunction, SSE by Sexual Activity Record (Example 4)
[2] = test system: arrector pili muscle; details: 1% w/v, iontophoresis; cited from earlier work
[3] = Heart rate, blood pressure and adverse events in Example 12; type: in vivo, human; details: for Delta HR t = 15: 15 minutes; for Delta HR t = 15 / Delta HR t = 30 / Delta HR t = 60: single patients, Hydrochloride; for Delta HR t = 30: 30 minutes; for Delta HR t = 60: 60 minutes
Procedure: 20 healthy, pre-menopausal females were recruited to the study. Subjects were instructed to apply either 4 or 6 drops of an investigational drug to each nipple areola complex. Baseline blood-pressure, heart rate, nipple erection, nipple sensitivity, genital lubrication and arousal were measured and recorded. […]

[4] = IVRT skin penetration, synthetic skin model; type: in vitro ADME; details: 10% solution
Text: Transdermal penetration of a particular formulation can be assessed with in vitro release testing (IVRT) using a Franz cell. See Bartosova and Bajagar, “Transdermal Drug Delivery In Vitro Using Diffusion Cells,” Current Medicinal Chemistry, 2012, 19, 4671-4677.
In order to determine the dermal absorption and bioavailability of topically applied 10% Phenylephrine Hydrochloride solution, we used an IVRT experimental setup with both skin excised from pig ears and a synthetic skin model (Maine Manufacturing, LLC, Me., USA).

[5] = test system: nipple areola complex; experiment: Restoration of nipple sensitivity post breast surgery, case study (Example 11); type: in vivo, human; details: Likert scale (1-10), 45 minutes after 10% solution, single patients; Hydrochloride
Procedure: A case study was conducted to assess the efficacy of a topical phenylephrine solution in increasing nipple sensitivity in patients that reported a loss in nipple sensitivity post breast surgery. Five subjects ages 36-65 participated in the study. Subjects were asked to rate their nipple sensitivity on a Likert scale (1-10) before surgery and currently (i.e., after surgery). Next, patients were asked to apply a 10% phenylephrine solution to each nipple areola complex. 45 minutes after application of the drug, patients were asked again to rate their nipple sensitivity on a Likert scale (1-10).

[6] = test system: nipple-areola complex; experiment: Phenylephrine FSFI orgasm domain study (Example 8); type: in vivo, human
Procedure: Phenylephrine HCl 15%. A study was conducted to evaluate the effect of Phenylephrine HCl 15% on the FSFI orgasm domain. Three premenopausal subjects participated in the study. Subjects were not hypertensive, pregnant or breastfeeding.

[7] = test system: nipple areole complex; experiment: Pilot dose study of nipple erection and sensitivity, topical phenylephrine (Example 3); type: in vivo, human; details: 10% topical solution
Procedure: A pilot study was conducted to assess the dosage of topical phenylephrine solution required to elicit nipple erection and sensitivity. […] Two subjects were post-menopausal and the reminder three were pre-menopausal. Subjects were not hypertensive, pregnant or breastfeeding. Three formulations were used: Formula A: 0% topical phenylephrine hydrochloride solution; Formula B: 5% topical phenylephrine hydrochloride solution; Formula C: 10% topical phenylephrine hydrochloride solution.
The study was conducted over 3 days. On day 1, subjects were instructed to apply on the left nipple Formula A and on the right nipple Formula B. On day 2, subjects were instructed to apply on the left nipple Formula A and on the right nipple Formula C. On day 3, subjects were instructed to apply on the left nipple Formula B and on the right nipple Formula C. 0.1 mL of each formula was applied with a cotton swab to the nipple areole complex. […] With the 10% topical phenylephrine solution, response in nipple erection and sensitivity was obtained in less than 30 minutes and lasted for 3-4 hours.

[8] = test system: nipple areola complex; experiment: Iontophoresis patch erection of the nipple areola complex (Example 10); type: in vivo, human; details: 1.3 mL 1% solution, iontophoresis patch 1 hour
Procedure: In the following experiment, a commercially available iontophoresis patch was used to erect the nipple of a subject.
1. The nipple and areola of each breast were prepared by cleaning with a sterile alcohol pad.
2. Two Inotopatch 80 (Travanti Medical) patches were removed from packaging.
3. The positive electrode of the first patch was filled with 1.3 mL of a 1% phenylephrine hydrochloride.
4. The negative electrode of the first patch was filled with 1.3 mL of a saline solution.
5. The positive electrode (approximately 1.5 cm diameter) containing the drug was placed over the nipple areola complex of the right breast; the negative electrode was placed on the adjacent breast tissue outside the nipple areola complex of the right breast.
6. Steps 2-5 were repeated, however, both electrodes of the Inotopatch 80 were filled with 1.3 mL of saline. The patch was applied to left breast following the procedure of step 5.
7. The patches were left in place (adhesive) for 1 hour (dosage=[…], 80 mA/min).
8. After 1 hour the patches were removed.

[9] = Blood pressure and heart rate after topical application on the nipple-areola complex (Example 2); type: in vivo, human
Procedure: A study of the blood pressure and heart rate of five patients receiving topical application on the nipple-areola complex was made. The composition applied was 0.1 mL of a 10% phenylephrine solution for a total dosage of 10 mg phenylephrine HCl. Blood pressure and heart rate were measured at baseline (T=0), after 15 minutes and 30 minutes.

[10] = test system: skin on the subjects forearm; experiment: pH pilot study, pilomotor effect on forearm skin (Example 6); type: in vivo, human; details: 10% solution
Procedure: A pilot study was conducted to assess the optimal pH of topical phenylephrine solution required to elicit smooth muscle contraction on the skin. A series of 10% phenylephrine solutions were prepared in phosphate buffer solutions of varied pH. pH 4.6, 4.8, 5.0, 5.2, 5.4, 5.6, 5.8, 6.0, 6.2, 6.4, and 6.6 were used. Areas of skin on the subjects forearm were marked with a surgical pen. 50 microliter of each solution were applied to the marked area of skin and allowed to dry. After one hour the sites of application were visually inspected for the appearance of the pilomotor effect (i.e., “goose bumps”).

[11] = Phenylephrine HCl 15%, single subjects, Hydrochloride
[12] = 0.1 mL 10% solution on NAC, 15 minutes, single subjects, listed as PHCI, Hydrochloride
[13] = 0.1 mL 10% solution on NAC, 30 minutes, single subjects, listed as PHCI, Hydrochloride

With `CNC[C@H](O)c1cccc(O)c1` [Phenylephrine HCl, Phenylephrine Hydrochloride] the “Number of SSE (1 week)” value ([1]; 0.1 mL 10% solution per NAC about 1 hour before sexual activity, single subjects, Hydrochloride) was 2 (2×) and 1 (2×) and 6 and 3 (3×) and 4, the “time nipples remained sensitive” value ([1]; 10% solution) was 3 to 4 h and the “time to increased nipple sensitivity after application” value ([1]; 10% solution, all subjects) was ≤ 30 min. For the same compound, the “subjects with significant change in number of SSEs from baseline” value ([1]; nine subjects, one week) was “Seven subjects reported significant change in the number of SSEs from baseline”, the “adverse events” value ([1]; one subject of nine) was “slightly painful nipple erection” and the persistence of sensitivity ([1]; one subject with initial slightly painful nipple erection) was “approximately 8 hours”. The “desire (modified FSFI desire domain)” value ([1]; subjects reporting increase in number of SSEs) was “increased desire”, the “piloerection on the forearm” value [2] was “can activate the piloerection on the forearm” and the “Delta HR t = 15” value ([3]; 10% Arm C, four drops (0.114 mL) per NAC) was −3 (2×) and −10 and 3 (4×) and −7 and 0 (3×) and −1 (2×) and −2 (3×) and 4 and −9 and 6 and −5. For the same compound, the “Delta HR t = 30” value ([3]; 10% Arm C, four drops) was −2 and −12 and 13 and −7 (3×) and −3 (2×) and −1 (2×) and 5 and 7 (2×) and 3 (2×) and −4 (3×) and 0 (2×), the “Delta HR t = 60” value ([3]; 10% Arm C, four drops) was −2 (2×) and −7 and −1 (3×) and −6 (2×) and −4 (4×) and 5 (2×) and −8 and 7 and 2 (2×) and −9 and −10 and the “Delta HR t = 15” value ([3]; 15% (Arm D), four drops) was −9 (4×) and 1 (2×) and 0 and −4 (2×) and −6 and 4 and −15 and −8 and −5 and −3 (3×) and 6 and −1 and −2. For the same compound, the “Delta HR t = 30” value ([3]; 15% (Arm D), four drops) was −14 and 4 (2×) and 0 and −1 and −2 (3×) and 6 and −10 (2×) and −4 and −5 and 2 and −12 and 8 and 5 and 1 and 3 and −8, the “Delta HR t = 60” value ([3]; 15% (Arm D), four drops) was −16 and 4 and −6 (3×) and −2 (4×) and −4 and −7 and −9 and 1 and −3 (2×) and 0 (2×) and −10 and 2 and −11 and the “Delta HR t = 15” value ([3]; 20% (Arm B), four drops) was −15 and 3 and −2 (2×) and −1 (2×) and −6 (2×) and 2 and −4 (2×) and −10 and 6 and 1 and −7 and −5 and 10 and −3 and 7 and 0. The “Delta HR t = 30” value ([3]; 20% (Arm B), four drops) was −20 and 4 and −6 and −14 and −3 (2×) and 7 (2×) and 1 (3×) and −1 (2×) and −7 and 10 (2×) and −9 (2×) and 3 and 6, the “Delta HR t = 60” value ([3]; 20% (Arm B), four drops) was −21 (2×) and 3 and 1 and −13 and 6 and −1 and 0 (2×) and −8 and −6 (2×) and 4 (2×) and −3 (2×) and −4 and 11 and 9 and −2 and the adverse event ([3]; 20% arm) was “one adverse event (nipple pain)”. For the same compound, the “changes in blood pressure or heart rate” value ([3]; all arms, 10-20%) was “no changes in blood pressure or heart rate”, the “maximal skin absorption in 24 hours” value [4] was ≤ 83% and the “Nipple Sensitivity, Post-Surgery + Drug” value [5] was 6 (2×) and 1 and 8 (2×). The adverse events ([6]; 15%) was “No adverse events were reported”, the “subjects with increased sensitivity and nipple erection” value ([6]; 15%, subjects without response to 10%) was 3 of 5 and the “FSFI Scale How Difficult to Reach Orgasm, Intervention” value [6, 11] was 5 (2×) and 4. For the same compound, the “FSFI Scale How Often Orgasm was Reached, Intervention” value [6, 11] was 5 and 4 (2×), the “nipple sensitivity past application” value ([6]; report) was ≤ 12 h and the “duration of response in nipple erection and sensitivity” value [7] was 3 to 4 h. For the same compound, the “time to response in nipple erection and sensitivity” value [7] was “less than 30 minutes”, the nipple sensitivity ([8]; one subject) was “increased sensitivity in the right nipple compared to the left nipple” and the nipple erection ([8]; right nipple vs saline left) was “visibly erect”. The “BP (T = 15)” value [9, 12] was 112/76 and 122/77 and 117/72 and 120/72 and 99/67, the “HR (T = 15)” value [9, 12] was 69 and 77 and 75 and 53 and 68 and the “BP (T = 30)” value [9, 13] was 117/75 and 122/78 and 128/77 and 116/68 and 97/63. For the same compound, the “HR (T = 30)” value [9, 13] was 74 and 80 and 68 and 58 and 69, the “change in blood pressure or heart rate” value ([9]; 0.1 mL 10% solution, five patients, 15 and 30 minutes) was “No significant change in blood pressure or heart rate” and the “Results after 1 hour (pilomotor effect)” value ([10]; pH 4.6, 50 microliter on forearm) was “None”. The “Results after 1 hour (pilomotor effect)” value ([10]; pH 4.8) was “Slight”, the “Results after 1 hour (pilomotor effect)” value ([10]; pH 5.0) was “Strong” and the “Results after 1 hour (pilomotor effect)” value ([10]; pH 5.2) was “Strong”. For the same compound, the “Results after 1 hour (pilomotor effect)” value ([10]; pH 5.4) was “Strong”, the “Results after 1 hour (pilomotor effect)” value ([10]; pH 5.6) was “Slight” and the “Results after 1 hour (pilomotor effect)” value ([10]; pH 5.8) was “Slight”. The “Results after 1 hour (pilomotor effect)” value ([10]; pH 6.0) was “None”, the “Results after 1 hour (pilomotor effect)” value ([10]; pH 6.2) was “None” and the “Results after 1 hour (pilomotor effect)” value ([10]; pH 6.4) was “None”. For the same compound, the “Results after 1 hour (pilomotor effect)” value ([10]; pH 6.6) was “None”.
